The values below are quoted from earlier work in publication PMC3688238, “The effect of different dosing regimens of motesanib on the gallbladder: a randomized phase 1b study in patients with advanced solid tumors” (BMC Cancer, 2013).

The structures appear in SMILES notation. Like-named read-outs stand apart in the source and are kept apart here.

This data set has as its system gallbladder. Conditions: cited from earlier work.

As for `COc1cc2c(Oc3ccc4[nH]c(C)cc4c3F)ncnc2cc1OCCCN1CCCC1` [Cediranib], the Adverse events reported result (phase 1 study, ref Laurie et al. [21]) is recorded as “Acute cholecystitis” and the Adverse events reported entry (phase 2 study, ref Batchelor et al. [22]) was “Gallbladder obstruction, abdominal pain”.

Regarding `Cc1ccc(NC(=O)c2ccc(CN3CCN(C)CC3)cc2)cc1Nc1nccc(-c2cccnc2)n1` [Imatinib], the Adverse events reported entry (case report, ref Breccia et al. [37]) is “Gallstones, gallbladder wall thickening, abdominal pain”; the Adverse events reported result (phase 1 study, ref Grant et al. [24]) is “Cholecystitis”; the Adverse events reported entry (single-arm study, ref Yeh et al. [23]) is listed as “Gallstones”.

With `CNC(=O)c1cc(Oc2ccc(NC(=O)Nc3ccc(Cl)c(C(F)(F)F)c3)cc2)ccn1` [Sorafenib], the Adverse events reported result by setting is: (case report, ref Sanda et al. [20]) “Right upper abdominal pain, gallbladder edema, acute acalculous cholecystitis”; (ref Nexavar European public assessment report [26]) “Cholecystitis, cholangitis”; (ref Nexavar US prescribing information [25]) “Cholecystitis, cholangitis”.

Turning to `CCN(CC)CCNC(=O)c1c(C)[nH]c(/C=C2\C(=O)Nc3ccc(F)cc32)c1C` [Sunitinib], the Adverse events reported entry is, setting by setting: (case report, ref De Lima Lopes, Jr., et al. [18]) “Acute emphysematous cholecystitis, right upper abdominal pain, gallbladder distension”; (case report, ref Gomez-Abuin et al. [19]) “Acute acalculous cholecystitis, right upper abdominal pain, gallbladder wall thickening”; (single-arm study, ref Motzer et al. [17]) “Acute cholecystitis”.
